Measured values: patent US6759509B1, “Branched peptide linkers” (Bristol-Myers Squibb Company, priority 1996, dated 2004)

Assay: decomposition of the isolated drug/linker in solution
Format: physicochemical
Conditions: by HPLC for Example 31
Protocol: A solution of MEt-IDA-(Phe-Lys(Mtr)-PABC-MMC)2 30 (134.6 mg, 0.0590 mmol) in methylene chloride (3 mL) at rt was treated with anisole (1.28 mL, 200 equiv) and 1 M chloroacetic acid in methylene chloride (1.18 mL, 20 equiv). After 3.5 h ethyl acetate (30 mL) was added. The resulting purple solid was collected by filtration, washed with ethyl acetate and air-dried (97.8 mg, 82%). […] MS (FAB) 1738.3 (M+Na)^+, 1776.4 (M+K)^+.
MEt-IDA-(Phe-Lys(Mtr)-PABC-7-Paclitaxel)2 33 (333.0 mg, 0.0861 mmol) in methylene chloride (3 mL) was treated with anisole (1.87 mL, 200 equiv) and 1 M chloroacetic acid in methylene chloride (1.72 mL, 20 equiv). After 4 h the mixture was diluted with ether (30 mL). The resulting suspension was sonicated for several minutes and then the solid was collected by filtration and washed with ether (256.3 mg, 97%). […] MS (ESI) 2778.2 (MH)^+.

MEt-IDA-(Phe-Lys-PABC-MMC)2.2Cl2CHCO2H [Example 31]
stability of the product in solution: appeared to decompose in solution to one product
